These results are taken from patent publication US12070505B2, “Targeted peptide-drug conjugates” (priority 2021, dated 2024).

≈ marks a conversion by molar mass, not a printed value.

One data set relates to MDA-231WT cells. Briefly: LC50 by CCK-8 assay, wild-type cells. Format: cell-based. Particulars: MDA-231WT (wild type); FIG. 10: after 72 h. Here is the method:
(§1) Dox-resistant Cell Lines. Acquired resistance to Dox was induced in wild-type triple-negative breast cancer cell line MDA-MB-231 (MDA-231WT) as described before (Aliabadi, H. M.; et al. J. Control. Release 172:219-228, 2013, which is incorporated herein by reference). Briefly, MDA-231WT cells were exposed to Dox at an initial concentration of 0.05 μg/mL for one week or three consecutive expansions (whichever came later). […] Resistance induction was confirmed via calculation of LC50 following a sigmoidal effect model explained elsewhere (Bousoik, E.; et al. Front. Oncol. 9:1070, 2019, which is incorporated herein by reference) and determination of P-glycoprotein (P-gp) expression.
(§2) The cytotoxicity of the peptide-Dox conjugate in resistant triple-negative breast cancer and uterine sarcoma cell lines (MDA-231R, MDA-231WT, and MES-SA/MX2) was evaluated by a Cell Counting 8 (CCK8) KIT. The peptide-Dox conjugate was added to the cells in triplicate with different concentrations (0-40 μM). Cells were incubated at 37° C. and 5% CO2 for 24 h. After this incubation period, 10 μL of CCK8 reagent was added to each well, and plates were incubated at the same conditions for 2 h. The absorbance of each well was determined at 450 nm using the SpectraMAX M5 microplate reader. After subtracting the signal from blank wells that contain medium without cells in the plate with CCK-8 solution added, the results were normalized to cells treated with normal saline (considered as 100%)
(§3) Efficiency in Dox-Resistant Cells. In order to compare the cytotoxic effect of free and peptide-conjugated Dox in Dox-resistant cells, MDA-231WT (as a Dox-sensitive cell line as control) and MDA-231R and MES-SA/MX2 cells as Dox-resistant cells were exposed to a wide range of Dox (or Dox-equivalent for the peptide-conjugated drug) concentrations (0.05-40 μM). Cells were seeded in 96-well plates with approximately 50% confluency and were incubated for 24 h in 37° C. and 5% CO2. […] The cell viability was determined after this incubation period using the CCK-8 assay, as explained above. […]
For orientation: Formazan colour is commonly taken as a measure of viable cells.

For the next data set, the system named is MDA-231R cells. Kind of data set: LC50 by CCK-8 assay, Dox-resistant MDA-231R. Format: cell-based. Here is the method: as §1, §2, §3
Data set [1] concerns MES-SA/MX2 cells. Briefly: LC50 by CCK-8 assay, Dox-resistant MES-SA/MX2. Format: cell-based. Particulars: FIG. 10: after 72 h. Here is the method: as §1
The cytotoxicity of the peptide-Dox conjugate in resistant triple-negative breast cancer and uterine sarcoma cell lines (MDA-231R, MDA-231WT, and MES-SA/MX2) was evaluated by a Cell Counting 8 (CCK8) KIT. The peptide-Dox conjugate was added to the cells in triplicate with different concentrations (0-40 μM). […] After this incubation period, 10 μL of CCK8 reagent was added to each well, and plates were incubated at the same conditions for 2 h. The absorbance of each well was determined at 450 nm using the SpectraMAX M5 microplate reader. […]
Efficiency in Dox-Resistant Cells. […] The cell viability was determined after this incubation period using the CCK-8 assay, as explained above. […]

Data set [2] deals with MES-SA/MX2 cells. Kind of data set: MTS cytotoxicity assay of [(WR)8WKβA]-Dox, MES-SA/MX2. Particulars: 5 μM. Here is the method:
Cytotoxic activity of the synthesized conjugate and noncovalent mixtures of cyclic [WR]9+Dox was determined in SK-OV-3, MDA-MB-231, MCF-7, MES-SA/MX2, and H9C2 cells. […] An appropriate growth medium was used for each cell line (for SK-OV-3: McCoy's […] with L-glutamine containing fetal bovine serum (FBS) (10%) and penicillin or streptomycin (1%); for MDA-MB-231 and MCF-7 cells: DMEM/F12 (1:1) (1×) with L-Glutamine and 15 mM HEPES containing FBS (10%) and penicillin or streptomycin (1%), and for MES-SA/MX2 and H9C2 cells: Minimum Essential Medium Eagle with Earle's salts and sodium bicarbonate, without L-glutamine containing FBS (10%), and penicillin or streptomycin (1%)). The cells were seeded in a complete growth medium 24 h prior to the experiment. […] The incubation was continued for 3 h.

The test system of another data set is MDA-MB-231 cells. The following applies: naïve MDA231 cells, previous study (Aliabadi et al, 2013); cited from earlier work.
The subject of data set [3] is gastric adenocarcinoma cells (AGS). Briefly: Cytotoxicity, MTS cell viability assay, AGS. Particulars: 5 μM.
Experimental: (§4) In Vitro Cytotoxicity Assay of Peptide-Drug Conjugates. […] In brief, CCRF-CEM cells were seeded at 50,000 cells in 0.1 mL per well in 98-well plates. In the case of other cell lines, the cells were seeded at 5,000 cells (0.1 mL per well in 96-well plates). […] Dox (5 μM) was used as a positive control, while water and cell culture medium were used as negative controls. The compounds were dissolved in water; water was used as a negative control to normalize the data. After the incubation period, MTS reagent (20 μL) was added to each well. The incubation was continued for 2 h. Cell viability was then determined by determination of the fluorescence intensity at 490 nm using a SpectraMax M2 microplate spectrophotometer. The percentage of cell viability was then calculated using the following equation: [(OD value of cells treated with the compound)−(OD value of culture medium)]/[(OD value of control cells)−(OD value of culture medium)]×100% (FIGS. 6-9).
The subject of another data set is CCRF-CEM cells. Briefly: Cytotoxicity, MTS cell viability assay, CCRF-CEM. Particulars: 5 μM.
The subject of the next data set is H9C2 cells. Kind of data set: Cytotoxicity, MTS assay, normal heart muscle cells (Example 1). The following applies: 5 μM.

Experimental for CCRF-CEM cells: as §4
Experimental for H9C2 cells: In Vitro Cytotoxicity Assay of Peptide-Drug Conjugates. The cytotoxicity of the compounds was determined by using human leukemia cell line (CCRF-CEM), human ovarian adenocarcinoma cells (SKOV-3) cells, kidney cell line (LLC-PK1), gastric adenocarcinoma cells (AGS), and heart/myocardium cells (H9C2) to evaluate the toxicity of the generated peptides according to a previously reported procedure (Rahman, A.; et al. Proc. Am. Assoc. Cancer Res. 26:2295-2299, 1985, which is incorporated herein by reference). In brief, CCRF-CEM cells were seeded at 50,000 cells in 0.1 mL per well in 98-well plates. In the case of other cell lines, the cells were seeded at 5,000 cells (0.1 mL per well in 96-well plates). The cells were seeded in medium (RPMI-1640 containing FBS (10%)), 24 h prior to the experiment. The compounds at different concentrations (10-50 μM) were added to each well in triplicate and incubated for 24 and 72 h at 37° C. in a humidified atmosphere of 5% CO2. Dox (5 μM) was used as a positive control, while water and cell culture medium were used as negative controls. The compounds were dissolved in water; water was used as a negative control to normalize the data. After the incubation period, MTS reagent (20 μL) was added to each well. The incubation was continued for 2 h. Cell viability was then determined by determination of the fluorescence intensity at 490 nm using a SpectraMax M2 microplate spectrophotometer.

`COc1cccc2c1C(=O)c1c(O)c3c(c(O)c1C2=O)C[C@@](O)(C(=O)CO)C[C@@H]3O[C@H]1C[C@H](N)[C@H](O)[C@H](C)O1` [Dox, doxorubicin, reference compound]: the CC50 in the data set on MDA-231WT cells came to 0.45 µM; in the data set on MDA-231R cells (MDA-231R (Dox-resistant), FIG. 10: after 72 h) it was 36 µM; in the data set with MES-SA/MX2 cells [1], 41 µM. The “LC50 in MDA-MB-231R cells, times higher than the naïve cells” value in the data set with MDA-231R cells (resistance induction) is reported as “more than 50 times”. The “efficiency against MES-SA/MX2” value in the data set on MES-SA/MX2 cells [2] (1 μM, 10 μM, or 20 μM) is given as “did not show significant efficiency”. In the data set with MES-SA/MX2 cells [2] (MES-SA/MX2), the “inhibition of cell viability/proliferation” value stood at 15%. In the data set with MDA-MB-231 cells, the LC50 was 0.3 µg/mL (≈ 0.552 µM). Also, the entries for the “Cell Viability (%) after 24 h” value (in data set [3]; in the data set with CCRF-CEM cells; with H9C2 cells (normal heart H9C2)) were 54 ± 2%, 48 ± 2% and 80 ± 2%, respectively. Besides, the “Cell Viability (%) after 72 h” value in data set [3] is recorded as 13 ± 3%; in the data set with CCRF-CEM cells, 15 ± 3%; with H9C2 cells (normal heart H9C2), 56 ± 3%. In addition, the “reduction of cell survival” value in data set [3] (24 h) is on record as 46%; with H9C2 cells (H9C2, 24 h) it was 20%; in the data set with H9C2 cells (H9C2, 72 h) it was 44%; with H9C2 cells (H9C2, 96 h), 44%. The “reduction of cell survival/viability” value in data set [3] (72 h) was 87%; in the data set on CCRF-CEM cells (24 h) it was 52%; with CCRF-CEM cells (72 h), 85%. In addition, in the data set on H9C2 cells (H9C2, time not stated), the “reduction of viability of heart cells” value was determined as 44%. Besides, the “Cell Viability (%) after 96 h” value in the data set with H9C2 cells (normal heart H9C2) was 56 ± 1%.

What is called CC50 is the concentration at which the toxic effect on the cells reaches its halfway point. A low value points to greater toxicity to the cells. What is called LC50 is the concentration that kills 50% of the test population.
